Experimental data published in US9340549B2, “Oxazolidinone compounds and derivatives thereof” (priority 2012, dated 2016).
Read-outs that look alike come from different tables or passages of the source.

Legend:
Axin2 in SW480 cells = assay: cells; assay type: cell-based; settings: Homo sapiens, SW480, 24 h, SW480 cells, 24 hours; read-out: Axin2 384 IF EC50 IP
Summary of the method: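 SW480 cells treated 24 h at 37° C (0.5% DMSO final), fixed/permeabilized, immunostained for Axin2. ArrayScan imaging quantified ring-spot intensity; Axin2 accumulation expressed as percent of control, EC50 from concentration-response.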

[1] = system: total β-catenin in SW480 colorectal cells; assay: cells; assay type: cell-based; settings: Homo sapiens; SW480 cells, 40 to 48 hours, top concentration 10 μM; read-out: SW480-Total β-Catenin IC50 IP
Summary of the method: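 SW480 cells in growth medium (MEM alpha, 10% heat-inactivated FBS, 10 mM HEPES) treated with a 10-point, 3-fold dilution series of TNKS inhibitor for 40–48 h at 37 °C. Lysates run on an MSD sandwich immunoassay for total β-catenin, read by electrochemiluminescence.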

[2] = system: 8×TCF promoter-driven Firefly luciferase (Wnt reporter) in HEK-293 cells; assay: 2H9-STF assay, Wnt ligand activated HEK-293 assay in WT APC cellular context; assay type: cell-based; settings: Homo sapiens
Experimental: HEK-293 cells engineered with an 8×TCF promoter-driven Firefly (FF) luciferase gene (Wnt reporter) along with an SV40 promoter-driven Renilla (RN) luciferase gene (control reporter) were used to measure the potency of tankyrase compounds in the context of Wnt ligand activation in a wild-type (non-APC mutated) cellular background. The engineered HEK-293 cells were plated (25 μL) at a density of 40,000 cells/well in black, clear-bottom, 96-well View plates (PerkinElmer) in normal growth medium (DMEM with 10% FBS with no antibiotics). Tankyrase inhibitors (5 μL) were transferred to cells from a three-fold serially diluted compound plate. A 10-point dilution series was tested starting at a concentration (10 μM final concentration in assay). Column 6 contained only DMSO and served as the “HI” control. Cells and compounds were incubated together for 1 hour at 37° C. after which the Wnt3a ligand (pathway inducer) was added to all wells except column 12 which served as the “LO” control. Twenty microliters of diluted recombinant mouse Wnt3a (R & D Systems) was added to the cells for a final concentration of 200 ng/mL (5 nM which is the Wnt3a˜EC80) and the plates were incubated at 37° C. for 18 to 24 hours. The Dual-Glo Reagents (Promega) were added as directed by manufacturer to assay the FF and RN luciferase activity. Luciferase activity was measures using the EnVision multilabel plate reader (PerkinElmer).

[3] = system: 8×TCF promoter-driven Firefly luciferase (Wnt reporter) in DLD-1 colorectal cells; assay: DLD-1-STF assay, constitutively activated Wnt pathway in mutant APC cancer cell context; assay type: cell-based; settings: Homo sapiens; DLD-1 reporter cells, 40 to 48 hours; read-out: DLD1-STF-FF/RL * 100 IC50
Experimental: DLD-1-STF Assay. Constitutively Activated Wnt Pathway Assay in Mutant APC Cancer Cell Context
DLD-1 colorectal cells engineered with an 8×TCF promoter-driven Firefly (FF) luciferase gene (Wnt reporter) along with an EF1a promoter-driven Renilla (RN) luciferase gene (control reporter) were used to measure the potency of tankyrase compounds in the context of the constitutively activated Wnt pathway due to mutated APC in colorectal cancer cells. The engineered DLD-1 cells were plated (45 μL) at a density of 10,000 cells/well in black, clear-bottom, 96-well View plates (PerkinElmer) in normal growth medium (RPMI with 10% FBS with no antibiotics). Tankyrase inhibitors (5 μL) were transferred to cells from a three-fold serially diluted compound plate. A 10-point dilution series was tested starting at a concentration (10 μM final concentration in assay). Column 6 contained only DMSO and served as the “HI” control. […] The plates were incubated at 37° C. for 40 to 48 hours. The Dual-Glo Reagents (Promega) were added as directed by manufacturer to assay the FF and RN luciferase activity. Luciferase activity was measures using the EnVision multilabel plate reader (PerkinElmer).

SW480 cells = assay: Colony formation assay; assay type: cell-based; settings: Homo sapiens, read-out: SW480 Colony Inhibition IC50
Experimental: Colorectal cell lines grown under normal logarithmic growth conditions in 10% FBS were trypsinized, counted in a Vi-CELL Cell Viability Analyzer and diluted to 400 cells/mL in RPMI media containing 0.5% FBS. Cells were plated in 12 well plates using 0.5 mL of diluted cells for a total of 200 cells/well. Tankyrase inhibitors were diluted in RPMI (0.5% FBS) at 2× final concentration. Ten concentrations of compound were prepared starting at 20 μM and serially diluted by 2 fold and 0.5 mL of diluted compound was added to each well. The final concentration range tested was thus 10 μM down to 20 nM. Two additional wells per plate were treated with the vehicle control (0.1% DMSO). The cells were grown for 12 days with the media and the compounds changed at day 6. Colonies were visualized by fixing and staining with Crystal Violet dye diluted in 1× fixation solution (2% formaldehyde, 0.2%, glutaraldehyde in 1×PBS) for 30 minutes at room temperature. The plates were washed extensively and air dried. Images of plates were captured and the colony counts were performed using the Bioreader® (Biosys) reader.

[4] = molecular target: 6×HIS-tankyrase 1 (1091-1325) (Homo sapiens (Human), UniProt O95271); assay: biochemical; assay type: biochemical; settings: […] enzyme, 400 nM NAD, 60 minutes at room temperature; read-out: TNKS1 IP IC50
[5] = molecular target: 6×HIS-tankyrase 2 (946-1162) (Homo sapiens (Human), UniProt Q9H2K2); assay: Tankyrase 2 biochemical assay (AlphaLisa, anti-PAR detection); settings: 4 nM enzyme, 250 nM NAD; read-out: TNKS2 IP IC50
Chain of 6×HIS-tankyrase 2 (946-1162) (Q9H2K2 946-1162): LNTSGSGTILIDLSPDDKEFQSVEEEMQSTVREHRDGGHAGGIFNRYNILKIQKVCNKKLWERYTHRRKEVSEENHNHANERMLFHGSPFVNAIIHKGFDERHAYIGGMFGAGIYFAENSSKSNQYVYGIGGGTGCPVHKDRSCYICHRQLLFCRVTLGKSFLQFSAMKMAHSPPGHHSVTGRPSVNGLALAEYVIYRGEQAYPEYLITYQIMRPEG

Chain of 6×HIS-tankyrase 1 (1091-1325) (O95271 1091-1325): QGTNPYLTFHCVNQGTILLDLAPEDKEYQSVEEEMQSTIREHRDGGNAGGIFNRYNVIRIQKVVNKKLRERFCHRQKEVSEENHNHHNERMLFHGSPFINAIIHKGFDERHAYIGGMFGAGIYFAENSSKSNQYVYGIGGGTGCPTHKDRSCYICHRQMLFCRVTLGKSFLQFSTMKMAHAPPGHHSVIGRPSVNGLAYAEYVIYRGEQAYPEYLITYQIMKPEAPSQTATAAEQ

SMILES	EC50 (Axin2 in SW480 cells) [nM]	IC50 [1] [nM]	IC50 ([2]; HEK293, HEK-293 reporter cells, 200 ng/mL mouse Wnt3a, 18 to 24 hours, read-out: 2H9-Wnt3a-STF-FF/RL * 100 IC50) [nM]	IC50 [3] [nM]	IC50 (SW480 cells; 288 h, SW480, 0.5% FBS, 12 days) [nM]	IC50 [4] [nM]	IC50 [5] [nM]	IC50 ([2]; HEK293, read-out: 2H9-Wnt3a-STF-FF/RL * 100 IC50) [nM]	IC50 (SW480 cells; SW480, 288 h) [nM]
CC1(C)OC(=O)N(c2ccc(-c3cnc(N)c(-c4ncccn4)c3)cc2)[C@H]1c1ccccc1 [Example 65, (S)-3-(4-(6-amino-5-(pyrimidin-2-yl)pyridin-3-yl)phenyl)-5,5-dimethyl-4-phenyloxazolidin-2-one]	1440	233	95.9	107	1300	49	25.9	–	–
CC1(C)OC(=O)N([C@H]2CC[C@H](NC(=O)c3cccc4cccnc34)CC2)[C@H]1c1ccccc1 [Example 26, N-((1S,4r)-4-((S)-5,5-dimethyl-2-oxo-4-phenyloxazolidin-3-yl)cyclohexyl)quinoline-8-carboxamide]	–	–	–	–	–	–	–	55	1300
